The values below come from US10596145B2, “Heterocyclic flavone derivatives, compositions, and methods related thereto” (Emory University, priority 2012, dated 2020).

Structures are written as SMILES. “Also recorded” adds a separate entry of the source.

Data set [1] has as its target T1, TrkB (Rattus norvegicus, UniProt Q63604).
T1 construct: endogenous in cells; host or cells: primary cortical neurons from E17 rat embryos
Description: TrkB activation in primary cortical neurons (immunoblotting). The format is cell-based. The settings on record: 500 nM, 15 min. As to the method: Primary cortical cultures from E17 rat embryos were treated with 500 nM of various synthetic flavone derivatives for 15 min. The cell lysates (20 μg) were analyzed by the immunoblotting.
Rat primary neurons were treated with 500 nM various indicated compounds from 15 min. The neuronal lysates ([…]) were analyzed with various antibodies.
500 nM of different synthetic compounds were added to DIV 7 neurons for 15 min. The cell lysates were analyzed by immunoblotting with indicated p-Akt 473 antibodies.
Replacing the 3′-dimethylamino group or 4′-morpholino group was tested for TrkB agonistic activity. To compare the TrkB activation by these compounds, primary cortical cultures were prepared and treated them with 500 nM of various compounds for 15 min and collected the cell lysates. […] The p-Akt ELISA analysis results were similar to the TrkB activation pattern (FIG. 2B, lower panel).
(In western blotting, separated proteins are transferred to a membrane and probed.)

In data set [2] the test system is C57BL/6J mice. The data set is described as follows: Locomotor activity assay. The format is in vivo, mouse. The settings on record: 2.5 mg/kg oral, 3 weeks. As to the method: The above drug-treated mice were subjected locomotor activity at day 22. […] Data are presented as mean±SEM.
Locomotor activity was assessed using an automated system (San Diego Instruments, La Jolla, Calif., USA) with photobeams that recorded ambulations (consecutive beam breaks). Drug-treated mice were placed in the locomotor chambers, and their activity was recorded for 2 h with 30 min interval.

A short description of data set [3]: Reactive metabolic screening assay. The settings on record: liver microsomal lysates. Format: in vitro ADME. The text has this: To explore these compounds' in vitro ADMET profiles, we conducted numerous in vitro assays.
(Liver microsomes are a subcellular fraction often used to study metabolism.)

Data set [4] has as its system C57BL/6J mice. Description: Tail suspension test. Format: in vivo, mouse. The settings on record: 2.5 mg/kg oral, 21 days. As to the method: The drug-treated mice were subjected tail suspension assay. […] Data are presented as mean±SEM.
One suspends mice by the tail to a horizontal ring stand bar 30 cm above the floor using adhesive tape for 6 minutes and videotaped. Latency to immobility and time spent immobile will be scored for each mouse. Following the test, mice will be returned to their home cage. Immobility scores were compared by unpaired t test.

Another data set concerns HepG2 cells. Description: In vitro cytotoxicity assay with HepG2 cells. The settings on record: micronucleus and comet assays. Format: cell-based. As to the method:
HepG2 cells were treated with various concentrations of flavonoids for 24 h. The drug-treated cells were subjected to trypan blue exclusive assay. Data are presented as mean±SEM. (n=3, ***P<0.0001 vs vehicle).
In vitro and in vivo ADMET (ADME plus toxicity) of certain compounds were examined. […] Micronuclei formation is an important endpoint in genotoxicity study. […] Next, a Comet assay was performed with 100 μM drug-treated HepG2 cells. As a positive control, etoposide, a topoisomerase inhibitor, which causes DNA strand breaks was used.

The test system of data set [5] is C57BL/6J mice. Description: Forced swim test. The format is in vivo, mouse. The method, then:
Male C57BL/6J mice (6 mice/group) were orally administrated by gavage with 5 mg/kg compound (m) or compound (i) and vehicle solvent saline for 21 days and subjected to a forced swim test (6 min, immobility recorded in the last 4 min). Data are presented as mean±SEM. (n=6, ***P<0.0001 vs vehicle, Student t-test).
Forced swim test. Male C57BL/6J mice (8 mice/group) were orally administrated by gavage with 2.5 mg/kg compound o or compound p and vehicle solvent saline for 21 days and subjected to a forced swim test (6 min, immobility recorded in the last 4 min). […] Data are presented as mean±SEM.
Adult male mice (2-3 months old) were randomly submitted to a forced swim test without a preswim. Test compounds were orally administrated by gavage for 21 days. The mice were allowed to adapt to the test room for 2 days. The mice were placed in a clear glass cylinder with a diameter of 16 cm, half-filled with clear water at 24° C.

In data set [6] the target is T2, TrkB (Mus musculus, UniProt P15209).
T2 construct: from tissue; host or cells: mouse brain (hippocampus, cortex), C57BL/6
T2 sequence (P15209 32-821): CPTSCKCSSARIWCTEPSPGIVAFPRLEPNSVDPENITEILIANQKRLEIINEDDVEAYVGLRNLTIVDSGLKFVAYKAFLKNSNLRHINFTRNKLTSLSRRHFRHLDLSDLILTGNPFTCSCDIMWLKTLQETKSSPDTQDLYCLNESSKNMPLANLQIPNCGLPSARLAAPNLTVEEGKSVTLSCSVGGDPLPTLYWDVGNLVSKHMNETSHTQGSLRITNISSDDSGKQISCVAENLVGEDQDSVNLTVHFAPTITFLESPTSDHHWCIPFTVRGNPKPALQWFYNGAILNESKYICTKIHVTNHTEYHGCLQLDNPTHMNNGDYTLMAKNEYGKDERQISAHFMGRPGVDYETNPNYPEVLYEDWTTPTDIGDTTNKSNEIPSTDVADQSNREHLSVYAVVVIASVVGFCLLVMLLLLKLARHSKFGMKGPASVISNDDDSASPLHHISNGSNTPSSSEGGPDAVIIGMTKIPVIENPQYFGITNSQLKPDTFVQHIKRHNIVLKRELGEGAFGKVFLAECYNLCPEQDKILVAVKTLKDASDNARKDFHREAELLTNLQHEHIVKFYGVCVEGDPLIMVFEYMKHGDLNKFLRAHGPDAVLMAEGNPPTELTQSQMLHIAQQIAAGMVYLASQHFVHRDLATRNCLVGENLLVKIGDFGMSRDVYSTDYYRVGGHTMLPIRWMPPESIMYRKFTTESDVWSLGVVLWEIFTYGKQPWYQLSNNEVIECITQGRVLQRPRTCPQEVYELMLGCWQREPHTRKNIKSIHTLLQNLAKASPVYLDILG
The data set is described as follows: TrkB phosphorylation in mouse brain after oral administration (immunoblotting, immunohistochemistry). Format: in vivo. As to the method:
One mg/kg of various indicated compounds were orally administrated into C57 BL/6J mice and TrkB phosphorylation and its downstream signaling cascades including Akt and MAPK in the hippocampus of mouse brain were analyzed by immunoblotting at 4 h. […] The downstream p-Akt and p-MAPK activity coupled to the TrkB activation patterns.
Time course assay with 4′-dimethylamino-7,8-imidazole flavone. One mg/kg of compound (i) and compound (m) were orally administrated into C57 BL/6J mice and TrkB phosphorylation and its downstream signaling cascades including Akt in mouse brain were analyzed by immunoblotting at various time points. TrkB activation by compound m peaked at 4 h, whereas the maximal TrkB activation by compound i in mouse brain occurred at 1-2 h. Arrows indicate the p-TrkB in mature glycosylated or unglycosylated forms (top panels). The downstream Akt activation pattern tightly correlated with the upstream TrkB activation.
Male C57BL/6 mice aged of two months were administrated orally with 4′-DMA-7,8-DHF derivatives at a single dose of 1 mg/kg for 4 h. The control mice were injected with saline. The mice were sacrificed and brains were homogenated and ultracentrafuged. The supernatant (40 μg) was employed for SDS-PAGE and immunoblotting analysis with indicated antibodies, respectively. Male C57BL/6 mice aged of two months were administrated orally with compound (i) or (m) at the dose of 5 mg/kg/day each and compound o or p at the dose of 2.5 mg/kg/day each for 21 days. BrdU (100 mg/kg) was i. p. injected two hours before the TrkB agonist treated animals were sacrificed and the hippocampal section lysates were analyzed by immunoblotting with p-TrkB and total TrkB antibodies, p-AKT ELISA.
Brain tissues were fixed in 4% paraformaldehyde overnight followed by paraffin embedding. Sections of 6 μm were cut. For immunohistochemical staining, brain sections were deparaffinized in xylene and rehydrated in graded alcohols. Endogenous peroxidase activity was blocked by 3% hydrogen peroxide for 5 min and all slides were boiled in 10 mM sodium citrate buffer (pH 6.0) for 10 min. Phosphorylated TrkB 816 and TrkB were detected using specific antibodies. Paraffin section were deparaffinized in xylene and rehydrated gradient ethanol solution. Samples were boiled in 10 mM sodium citrate buffer for 20 min for antigen retrieval purpose. Brain sections were incubated with anti-TrkB (BD Biosciences, San Jose, Calif.) 1:50, p-TrkB 1:300 dilution. Secondary antibody was applied using anti-rabbit-Alexa 594 (red), anti-mouse-fluorescein isothiocyanate (FITC) (green). DAPI (blue) was used for nuclear staining.

T1 sequence (Q63604 32-821): as the sequence (P15209 32-821) above, with T3M, S9T, A10T, V32I, R63K, S84G, M153T, L185I, S394T, S770N counted along it

With `Cc1nc2ccc3c(=O)cc(-c4ccc(N5CCCC5)cc4)oc3c2[nH]1` [compound o, 2-methyl-8-(4-(pyrrolidin-1-yl)phenyl)chromeno[7,8-d]imidazol-6(1H)-one], the “TrkB activation (p-TrkB immunoblotting)” value was “higher agonistic activity than compound m” on TrkB [1] and “triggers TrkB activation in primary neurons” on TrkB [1] (listed as 4′-pyrrolidino-7,8-methyl-imidazole-flavone). In the data set with C57BL/6J mice [2], the locomotor activity entry is “neither compound o nor p altered the motion activity”. For the same molecule, the “reactive metabolite / adduct formation” value in data set [3] is reported as “quite stable in vitro”. For the same molecule, in the data set with C57BL/6J mice [4], the “immobility in tail suspension test” value was “active in both FST and TST depression behavioral assays; also recorded: significantly reduced the immobility versus vehicle control”. Moreover, in the data set on HepG2 cells, the “cytotoxicity or genotoxicity (overall conclusion)” value was “negligible cytotoxicity or genotoxicity”. The “reduction of immobility in forced swim test compared to vehicle control” value in the data set on C57BL/6J mice [5] (2.5 mg/kg oral once a day, 3 weeks) was determined as 45%. For the same molecule, the “immobility in forced swim test” value in the data set on C57BL/6J mice [5] (2.5 mg/kg oral, 21 days) was “active in both FST and TST depression behavioral assays; also recorded: significantly decreased the immobility”. Moreover, the “TrkB activation in mouse brain” value at TrkB [6] (1 mg/kg oral, hippocampus, at 2 h) is on record as “triggers TrkB activation in mouse brain”. Also, on TrkB [6] (2.5 mg/kg/day oral, 21 days), the “TrkB phosphorylation after chronic treatment (immunoblotting)” value is given as “markedly activated TrkB receptor; also recorded: evidently elevated TrkB phosphorylation”. Further, the “TrkB phosphorylation in hippocampus (immunohistochemistry, anti-p-TrkB 816)” value at TrkB [6] (2.5 mg/kg/day oral, chronic) is on record as “elevated TrkB phosphorylation in hippocampus”.
